{"source": "patent US20240216369A1", "about": "“THE USE OF A SPLICING MODULATOR FOR A TREATMENT SLOWING PROGRESSION OF HUNTINGTON'S DISEASE” (Novartis AG, priority 2019, published 2024)", "key": {"mutant HTT protein [1]": {"tested_on": "mutant HTT protein", "assay": "Repeat oral dosing in BacHD mice: mutant HTT protein in tissues (Western blot)", "format": "in vivo", "protocol": "For the repeat dosing study, twenty-four BacHD mice (FVB/N-Tg(HTT*97Q)IXwy/J transgenic mice—Jackson Laboratories) were used for the experiment. Animal protocols were approved by the Children's Hospital of Philadelphia Institutional Animal Care and use Committee. Mice were housed in a temperature-controlled environment on a 12-h light/dark cycle. Food and water were provided ad libitum.\nFor the repeat dosing study, branaplam or vehicle was administered by oral gavage 3 times a week for 3 consecutive weeks. Mice were divided in 4 groups (n=6 mice/group) and treated with branaplam (12 mg/kg—1 group, or 24 mg/kg—2 groups), or vehicle (1 groups) as control. Mice were firmly restrained by grasping the loose skin to immobilize the head, maintained in a vertical position and a 22- to 26-gauge gavage needle was placed in the side of the mouth. The needle was guided following the roof of the mouth into the esophagus and allowed to gently enter in the stomach. The amount of branaplam or vehicle administrated to each mouse was based on the weight recorded the day of dosing.\nAt 24 h (vehicle and branaplam 12 mg/Kg & 24 mg/Kg), and 72 h (branaplam 24 mg/Kg) after the last treatment, blood, CSF, and tissue samples were obtained for PK and PD analysis. To collect CSF, mice were placed in a rodent anesthesia induction chamber where they are exposed to 4-5% isoflurane in 100% oxygen carrier gas. Once an appropriate plane of anesthesia was achieved, they were moved to a nose cone so that maintenance levels of isoflurane (1-3%) could be delivered throughout the procedure. The dorsal aspect of their cervical and occipital region was surgically prepped to visualize the dura mater under a microscope. A glass micropipette attached to a micromanipulator was introduced to the cisterna magna via a puncture through the dura mater at a point where no vasculature was visualized, and CSF was allowed to flow into the micropipette via capillary action. After approximately 15-30 minutes, the micropipette was removed from the cisterna magna, the CSF sample was transferred into Eppendorf tubes, flash frozen in liquid nitrogen, and stored at −80° C.\nFollowing CSF collection, mice were kept under anesthesia with isoflurane. Blood was obtained via submandibular vein bleeds and collected for RNA extraction (PD analysis) using RNAprotect Animal Blood Tubes, and plasma (PK analysis) using K2EDTA coated tubes. […]\nSnap-frozen mouse tissue samples were homogenized in RIPA buffer with protease and phosphatase inhibitor (Thermo Scientific) by Precellys at 6000 rpm for 40 sec. […] Total protein concentration was quantified using the BCA protein Assay (Thermo Scientific). […] Protein bands were quantified by Image J."}, "mutant HTT protein [2]": {"tested_on": "mutant HTT protein", "assay": "Human PK/PD model scaled from BacHD mouse, simulations in adult patients", "conditions": "Scaled PD parameters (cortex)", "source_text": "For the development of a PK/PD model in adults, the adult ACAT/PBPK model (Example 1c.1) was used to predict the concentration-time course of branaplam in plasma after oral branaplam administration. The PD parameters of the population PK/PD model in mouse were scaled for brain cortex and brain striatum from BacHD mouse to human according to following assumptions: • Mutant HTT baseline level in brain (R0) was kept equal to 1. • Drug's potency (IC50) was assumed to be the same in human as in BacHD mouse. The value was not corrected by the plasma protein binding since values in mouse and human were 0.741 and 0.8 in mouse and human, respectively. • Degradation rate or fractional turnover parameter of the mutant HTT protein synthesis (kout) was scaled from BacHD mouse to human considering an allometric scaling method based on the assumption that endogenous turnover of proteins, peptides and hormones can be scaled across different species and are related to energy turnover or metabolic rates (Gabrielsson J, Hjorth S, Quantitative Pharmacology: An Introduction to Integrative Pharmacokinetic-Pharmacodynamic Analysis. Swedish Pharmaceutical Press; 1 edition (May 7, 2012)). […]"}, "[3]": {"conditions": "12 or 24 mg/kg oral, thrice weekly for three weeks, 24 h post-dosing, listed as branaplam"}}, "note": "Entries after “also recorded” stand apart in the source; their conditions may differ.", "data": [{"smiles": "CC1(C)CC(Oc2ccc(-c3ccc(-c4cn[nH]c4)cc3O)nn2)CC(C)(C)N1", "note": "[Compound 18, 5-(1H-pyrazol-4-yl)-2-(6-((2,2,6,6-tetramethylpiperidin-4-yl)oxy)pyridazin-3-yl)phenol]", "values": [{"measurement": "mutant HTT protein, 72 h relative to 24 h", "setting": "mutant HTT protein [1]; 24 mg/kg cohort, takedown 72 h post-dose", "value": "trend towards further lowering"}, {"measurement": "mutant HTT protein in the cortex", "setting": "mutant HTT protein [1]; [3]", "value": "dose dependent, significant lowering; also recorded: lowers"}, {"measurement": "mutant HTT protein in the striatum", "setting": "mutant HTT protein [1]; [3]", "value": "dose dependent, significant lowering; also recorded: lowers"}, {"measurement": "mHTT protein in the liver", "setting": "mutant HTT protein [1]; 12 or 24 mg/kg oral, thrice weekly for three weeks, listed as branaplam", "value": "robust lowering; also recorded: lowers"}, {"measurement": "Imax", "setting": "mutant HTT protein [2]; first block", "value": 1}, {"measurement": "Imax", "setting": "mutant HTT protein [2]; second block", "value": 1}]}]}
